The values that follow are results of earlier work, collected in patent US20090011059A1, “Ginger Extract For Inhibiting Human Drug Transporters” (priority 2005, published 2009).

The conditions of the first data set: in vivo.
Regarding vitamin E, the “increase of the plasma exposure of cyclosporin A” value is reported as “roughly two-fold”.

Conditions in another data set: not given
Regarding `CC(=O)O[C@@]12CO[C@@H]1C[C@H](O)[C@@]1(C)C(=O)[C@H](O)C3=C(C)[C@@H](OC(=O)[C@H](O)[C@@H](NC(=O)OC(C)(C)C)c4ccccc4)C[C@@](O)([C@@H](OC(=O)c4ccccc4)[C@H]21)C3(C)C` [Docetaxel], the oral availability is recorded as 8%.

Turning to `CC[C@H](C)C(=O)O[C@H]1C[C@@H](C)C=C2C=C[C@H](C)[C@H](CC[C@@H]3C[C@@H](O)CC(=O)O3)[C@H]21` [Lovastatin], the oral availability is on record as 4%.

For `CO[C@H]1C[C@@H]2CC[C@@H](C)[C@@](O)(O2)C(=O)C(=O)N2CCCC[C@H]2C(=O)O[C@H]([C@H](C)C[C@@H]2CC[C@@H](O)[C@H](OC)C2)CC(=O)[C@H](C)/C=C(\C)[C@@H](O)[C@@H](OC)C(=O)[C@H](C)C[C@H](C)/C=C/C=C/C=C/1C` [Sirolimus], the oral availability is 15%.

Turning to `C=CC[C@@H]1/C=C(\C)C[C@H](C)C[C@H](OC)[C@H]2O[C@@](O)(C(=O)C(=O)N3CCCC[C@H]3C(=O)O[C@H](/C(C)=C/[C@@H]3CC[C@@H](O)[C@H](OC)C3)[C@H](C)[C@@H](O)CC1=O)[C@H](C)C[C@@H]2OC` [Tacrolimus], the oral availability is recorded as 16%.

Consider `CC[C@@]1(O)C(=O)OCc2c1cc1n(c2=O)Cc2cc3c(CN(C)C)c(O)ccc3nc2-1` [Topotecan], for which the oral availability is recorded as 42%.
